Results on eleven compounds are retold here after patent US11066363B2, “Substituted 6,11-dihydro-5H-benzo[B]carbazoles as inhibitors of ALK and SRPK” (Dana-Farber Cancer Institute, Inc., priority 2015, dated 2021).

The target of data set [1] is EML4-ALK C1156Y transformed Ba/F3 cells (Homo sapiens, UniProt Q9UM73, C1156Y, cells depend on it). Description: Ba/F3 dose escalation MTS viability assay. The settings on record: 72 hours. Type of data set: cell-based.
Excerpt: (§1) The MTS assay is a colorimetric method for determining the number of viable cells that is based on the bioreduction of MTS by cells to a formazan product that is soluble in cell culture medium and can be detected spectrophotometrically. […] All experimental points were set up in six wells and all experiments were repeated at least three times. […] The curves were fitted using a non-linear regression model with a sigmoidal dose response.
(§2) Untransduced Ba/F3 control was used as a cytotoxicity control.
In data set [2] the target is EML4-ALK L1152R transformed Ba/F3 cells (Homo sapiens, UniProt Q9UM73, L1152R, cells depend on it). Kind of data set: Ba/F3 dose escalation MTS viability assay. Type of data set: cell-based. The note with it: 72 hours. (Tetrazolium dyes change colour on reduction, which living cells bring about.)
Excerpt: as §1, §2
The target of data set [3] is EML4-ALK G1202R transformed Ba/F3 cells (Homo sapiens, UniProt Q9UM73, G1202R, cells depend on it). Description: Ba/F3 dose escalation MTS viability assay. Type of data set: cell-based. The settings on record: 72 hours.
Excerpt: as §1, §2
The target in data set [4] is EML4-ALK G1269A transformed Ba/F3 cells (Homo sapiens, UniProt Q9UM73, G1269A, cells depend on it). Description: Ba/F3 dose escalation MTS viability assay. Type of data set: cell-based. The settings on record: 72 hours.
Excerpt: as §1, §2
Data set [5] deals with EML4-ALK S1206Y transformed Ba/F3 cells (Homo sapiens, UniProt Q9UM73, S1206Y, cells depend on it). Kind of data set: Ba/F3 dose escalation MTS viability assay. Type of data set: cell-based. The settings on record: 72 hours.
Excerpt: as §1, §2
Data set [6] concerns EML4-ALK wt transformed Ba/F3 cells. Description: Ba/F3 single point inhibition assay (MTS). The note with it: single dose 1 μM, 72 hours. Type of data set: cell-based.
Excerpt: as §1
The subject of data set [7] is EML4-ALK^G1202R transformed Ba/F3 cells. Description: Ba/F3 single point inhibition assay (MTS). Type of data set: cell-based. The settings on record: single dose 1 μM, 72 hours.
Excerpt: as §1
In another data set the target is SRPK1 (Homo sapiens (Human), UniProt Q96SB4). Description: SRPK1 inhibitory activity. Type of data set: biochemical.
Data set [8] addresses EML4-ALK^WT transformed Ba/F3 cells (Homo sapiens, UniProt Q9UM73). Description: Ba/F3 dose escalation MTS viability assay. The settings on record: read-out: IC50 wt, 72 hours.
Excerpt: as §1, §2
In data set [9] the target is EML4-ALK L1196M transformed Ba/F3 cells (Homo sapiens, UniProt Q9UM73, L1196M, cells depend on it). Kind of data set: Ba/F3 dose escalation MTS viability assay. The settings on record: read-out: IC50 L1196M, 72 hours.
Excerpt: as §1, §2
In another data set the target is SRPK2 (Homo sapiens (Human), UniProt P78362). Kind of data set: SRPK2 inhibitory activity. Type of data set: biochemical.
Data set [10] addresses CD74-ROS transduced Ba/F3 cells (Homo sapiens, UniProt P08922). Kind of data set: Ba/F3 proliferation assay. Type of data set: cell-based. The note with it: read-out: IC50 Ba/F3 CD74-ROS; Table 6.
Excerpt: as §1
For data set [11], the target named is del19EGFR transduced Ba/F3 cells (Homo sapiens, UniProt P00533, cells depend on it, form not given). Description: Ba/F3 proliferation assay. Type of data set: cell-based. The note with it: read-out: IC50 Ba/F3 del19EGFR; Table 6.
In data set [12] the test system is mutant EGFR PC9 cell line. The settings on record: in words.
Description: Cell viability was evaluated using CellTiter-Glo Luminescent Cell Viability Assay (Promega) following manufacturer's instruction. IC50 values were calculated by nonlinear regression (variable slope) using GraphPad Prism 5 software. Each experiment was repeated for at least twice.
In a further data set the test system is H3122 cells (NSCLC). Type of data set: cell-based. The settings on record: Homo sapiens.
Data set [13] relates to DFCI76 (L1152R) cells (NSCLC). Type of data set: cell-based. The settings on record: read-out: IC50 Tumor Cell Line DFCI76 (L1152R).
Another data set addresses panel of 456 kinases. Description: KINOMESCAN kinase selectivity profiling. Type of data set: binding. The settings on record: screened at 1 μM.
The conditions of data set [14]: mouse, in vivo, iv, 2 mg/kg, 8 h.

Read-outs that look alike come from different tables or passages of the source.

Regarding `CCc1cc2c(cc1N1CCC(N(C)C)CC1)C(C)(C)c1[nH]c3cc(C#N)ccc3c1C2=O` [Compound 17, 8-(4-(dimethylamino)piperidin-1-yl)-9-ethyl-6,6-dimethyl-11-oxo-6,11-dihydro-5H-benzo[b]carbazole-3-carbonitrile], the IC50 was 2 nM in [1]; 695 nM in data set [2]; 478 nM in [3]; 3 nM in data set [4]; 2 nM in data set [5]; greater than 1000 nM against SRPK1. The IC50 in [8] turned out to be 2 nM; in [9] it was 10 nM. The “Percent viability of untreated control, wt” value (from here on “Percent viability … wt”) in [6] is listed as 2%. Besides, the “Percent viability of untreated control, G1202R” value (from here on “Percent viability … G1202R”) in data set [7] was determined as 9%.

Regarding `CCc1cc2c(cc1-c1cnn[nH]1)C(C)(C)c1[nH]c3cc(C#N)ccc3c1C2=O` [Compound 13, 9-ethyl-6,6-dimethyl-11-oxo-8-(1H-1,2,3-triazol-5-yl)-6,11-dihydro-5H-benzo[b]carbazole-3-carbonitrile], the IC50 was 177 nM in [1]; 345 nM in data set [2]; 214 nM in data set [3]; 256 nM in data set [4]; 1610 nM in [5]; 0.884 nM on SRPK1. The IC50 at SRPK2 was 7.46 nM; in data set [8], 115 nM; in data set [9], 629 nM. In addition, in [6], the “Percent viability … wt” value is recorded as 6%. In addition, in data set [7], the “Percent viability … G1202R” value is given as 7%.

In the case of `CCc1cc2c(cc1-c1cnn(CCN(C)C)c1)C(C)(C)c1[nH]c3cc(C#N)ccc3c1C2=O` [Compound 31, 8-(1-(2-(dimethylamino)ethyl)-1H-pyrazol-4-yl)-9-ethyl-6,6-dimethyl-11-oxo-6,11-dihydro-5H-benzo[b]carbazole-3-carbonitrile], the IC50 came out at 24 nM in [1]; 548 nM in data set [2]; 8 nM in data set [3]; 11 nM in data set [4]; 6 nM in [5]; 1.91 nM against SRPK1. Moreover, the IC50 on SRPK2 worked out at 6.6 nM; in [8] it was 2 nM; in data set [9], 80 nM. The “Percent viability … wt” value in [6] is listed as 1%. In [7], the “Percent viability … G1202R” value was 1%.

Consider `CCc1cc2c(cc1-c1cnn(C)c1)C(C)(C)c1[nH]c3cc(C#N)ccc3c1C2=O` [Compound 7, 9-ethyl-6,6-dimethyl-8-(1-methyl-1H-pyrazol-4-yl)-11-oxo-6,11-dihydro-5H-benzo[b]carbazole-3-carbonitrile], for which the “Percent viability … wt” value in data set [6] is reported as 1%. In addition, in data set [7], the “Percent viability … G1202R” value was found to be 1%. The IC50 against SRPK1 turned out to be 3.01 nM; against SRPK2, 12.4 nM.

`CCc1cc2c(cc1-c1cnn(CC(=O)N(C)C)c1)C(C)(C)c1[nH]c3cc(C#N)ccc3c1C2=O` [Compound 6, 2-(4-(3-cyano-9-ethyl-6,6-dimethyl-11-oxo-6,11-dihydro-5H-benzo[b]carbazol-8-yl)-1H-pyrazol-1-yl)-N,N-dimethylacetamide]: the values for the IC50 in data set [10] and in data set [11] were 678 ± 109 nM and 281 ± 1 nM, respectively. Also, in data set [12], the “inhibition of mutant EGFR PC9 cell line” value is given as “not inhibited”.

Regarding `CCc1cc2c(cc1N1CCC(N3CCOCC3)CC1)C(C)(C)c1[nH]c3cc(C#N)ccc3c1C2=O` [Alectinib], the IC50 in the data set on H3122 cells (NSCLC) (NCI-H3122, read-out: IC50 Tumor Cell Line H3122) stood at 7 ± 4 nM; in data set [13] it was 26 ± 27 nM; at SRPK1 it was 11 nM; on SRPK2 it was 28.2 nM.

`CCc1cc2c(cc1N1CCN(C)CC1)C(C)(C)c1[nH]c3cc(C#N)ccc3c1C2=O` [Compound 19, 9-ethyl-6,6-dimethyl-8-(4-methylpiperazin-1-yl)-11-oxo-6,11-dihydro-5H-benzo[b]carbazole-3-carbonitrile]: in data set [6], the “Percent viability … wt” value is on record as 0.1%. The “Percent viability … G1202R” value in [7] is on record as 0.1%. Further, the IC50 was 2.66 nM against SRPK1 and 8.57 nM against SRPK2.

In the case of `Cc1cc(Nc2ncc(Cl)c(Nc3ccccc3S(=O)(=O)C(C)C)n2)c(OC(C)C)cc1C1CCNCC1` [Ceritinib], the IC50 in the data set with H3122 cells (NSCLC) (NCI-H3122, Table 6, read-out: IC50 Tumor Cell Line H3122) was 13 ± 5 nM.

For `CCc1cc2c(cc1-c1cnoc1)C(C)(C)c1[nH]c3cc(C#N)ccc3c1C2=O` [Compound 10, 9-ethyl-8-(isoxazol-4-yl)-6,6-dimethyl-11-oxo-6,11-dihydro-5H-benzo[b]carbazole-3-carbonitrile], the IC50 in [1] is 116 nM; in [2] it was 345 nM; in [3], 80 nM; in data set [4], 186 nM; in data set [5], 728 nM; on SRPK1, 5.09 nM. Further, the IC50 was 14.5 nM on SRPK2, 59 nM in data set [8] and 634 nM in data set [9]. Further, the “Percent viability … wt” value in [6] is on record as 2%. Further, in [7], the “Percent viability … G1202R” value was 3%.

As to `CCc1cc2c(cc1-c1cnn(C(=O)N(C)C)c1)C(C)(C)c1[nH]c3cc(C#N)ccc3c1C2=O` [Compound 36, 4-(3-cyano-9-ethyl-6,6-dimethyl-11-oxo-6,11-dihydro-5H-benzo[b]carbazol-8-yl)-N,N-dimethyl-1H-pyrazole-1-carboxamide], the “Percent viability … wt” value in data set [6] came out at 0%. The “Percent viability … G1202R” value in [7] is reported as 0%. Moreover, the values for the IC50 on SRPK1 and against SRPK2 were 4.75 nM and 23.6 nM, respectively.

`CCc1cc2c(cc1-c1cnn(CCCN(C)C)c1)C(C)(C)c1[nH]c3cc(C#N)ccc3c1C2=O` [Compound 32, 8-(1-(3-(dimethylamino)propyl)-1H-pyrazol-4-yl)-9-ethyl-6,6-dimethyl-11-oxo-6,11-dihydro-5H-benzo[b]carbazole-3-carbonitrile]: the “Percent viability … wt” value in data set [6] is 0%. Further, the “Percent viability … G1202R” value in [7] turned out to be 0%. For the same compound, the KINOMESCAN interactions mapped on panel of 456 kinases was determined as 39. This compound had a Conc. in data set [14] of 80 nM.
